This note sets out measurements from US6544542B1, “Fat emulsions for inhalational administration” (Nippon Shinyaku Co., Ltd., priority 1998, dated 2003).

This data set can be described thus: Test Example 7: influence of the solubilization-effective surfactant concentration on nebulizer sprayability. The class given is physicochemical.

On to Tween-80, for which the “nebulizer sprayability, CA” value is “Infeasible”; the “nebulizer sprayability, Dexamethasone palmitate” value is recorded as “Infeasible”; the “nebulizer sprayability, Guaiazulene” value is reported as “Infeasible”.
Take Triton X100: the “nebulizer sprayability, CA” value was “Infeasible”.
